Bounds are passed on as bounds.

Among the data in patent publication US20230157996A1, “SMALL-MOLECULE INHIBITOR TARGETING EB VIRUS NUCLEAR ANTIGEN PROTEIN, PREPARATION METHOD AND USE THEREOF” (priority 2020, published 2023) are inhibition values, retold here.

This assay concerns C666-1 cells. Briefly: C666-1 cell viability single concentration (50 μM) inhibition rate (Resazurin). Format: cell-based. The settings on record: Homo sapiens, C6661, 72 h, 50 μM compound, 72 hours, C666-1 cells; read-out: C666-1 cell viability single concentration (50 μM) inhibition rate, Ratio* (Inh %). In short, it runs like this:
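EBV-positive C666-1 cells (5×10^3/well), pre-cultured 24 h, were exposed to compound at 50 μmol/L final for 72 h at 37° C, 5% CO2, in duplicate. Viability by resazurin (3 h, ex 560/em 590 nm); inhibition rate computed relative to DMSO control and medium-only blank.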
Background: Alamar Blue is a resazurin reagent that responds to reducing activity.

On to `O=C(O)c1cccc(N2CC(Oc3ccc(Oc4ccccc4)c(Cl)c3)C2)c1-n1cccc1` [Example 199, 3-(3-(3-chloro-4-phenoxyphenoxy)azetidin-1-yl)-2-(1H-pyrrol-1-yl)benzoic acid], for which the inhibition at 50 µM was in the range of 30 to 50%.
Next, `COC(=O)c1cccc(N2CC(Oc3ccc(Oc4ccccc4)c(F)c3)C2)c1-n1cccc1` [Example 200, Methyl 3-(3-(3-fluoro-4-phenoxyphenoxy)azetidin-1-yl)-2-(1H-pyrrol-1-yl)benzoate]: less than 10%.
Under `O=C(O)c1cccc(N2CC(Oc3ccc(Oc4ccccc4)c(F)c3)C2)c1-n1cccc1` [Example 201, 3-(3-(3-fluoro-4-phenoxyphenoxy)azetidin-1-yl)-2-(1H-pyrrol-1-yl)benzoic acid] stands 30 to 50%; under `COC(=O)c1cccc(N2CC(Oc3ccc(Oc4ccc(F)cc4)cc3)C2)c1-n1cccc1` [Example 202, Methyl 3-(3-(4-(4-fluorophenoxy)phenoxy)azetidin-1-yl)-2-(1H-pyrrol-1-yl)benzoate], less than 10%; under `O=C(O)c1cccc(N2CC(Oc3ccc(Oc4ccc(F)cc4)cc3)C2)c1-n1cccc1` [Example 203, 3-(3-(4-(4-fluorophenoxy)phenoxy)azetidin-1-yl)-2-(1H-pyrrol-1-yl)benzoic acid], 10 to 30%.
Under `COC(=O)c1cccc(N2CC(Oc3cc(F)c(Oc4ccccc4)c(F)c3)C2)c1-n1cccc1` [Example 204, Methyl 3-(3-(3,5-difluoro-4-phenoxyphenoxy)azetidin-1-yl)-2-(1H-pyrrol-1-yl)benzoate] stands less than 10%; under `O=C(O)c1cccc(N2CC(Oc3cc(F)c(Oc4ccccc4)c(F)c3)C2)c1-n1cccc1` [Example 205, 3-(3-(3,5-difluoro-4-phenoxyphenoxy)azetidin-1-yl)-2-(1H-pyrrol-1-yl)benzoic acid], less than 10%.
As for `COC(=O)c1cccc(N2CC(Oc3ccc(Oc4ccc(C(C)=O)cc4)cc3)C2)c1-n1cccc1` [Example 206, Methyl 3-(3-(4-(4-acetylphenoxy)phenoxy)azetidin-1-yl)-2-(1H-pyrrol-1-yl)benzoate], the inhibition at 50 µM is less than 10%.
Next, `CC(=O)c1ccc(Oc2ccc(OC3CN(c4cccc(C(=O)O)c4-n4cccc4)C3)cc2)cc1` [Example 207, 3-(3-(4-(4-acetylphenoxy)phenoxy)azetidin-1-yl)-2-(1H-pyrrol-1-yl)benzoic acid]: 10 to 30%.
Consider `COC(=O)c1cccc(N2CC(Oc3ccc(Sc4ccccc4)cc3)C2)c1-n1cccc1` [Example 208, Methyl 3-(3-(4-(thiophenyl)phenoxy)azetidin-1-yl)-2-(1H-pyrrol-1-yl)benzoate], for which the inhibition at 50 µM is less than 10%.
Next, `O=C(O)c1cccc(N2CC(Oc3ccc(Sc4ccccc4)cc3)C2)c1-n1cccc1` [Example 209, 3-(3-(4-(thiophenyl)phenoxy)azetidin-1-yl)-2-(1H-pyrrol-1-yl)benzoic acid]: 10 to 30%.
Under `COC(=O)c1cccc(N2CC(Oc3ccc(Oc4ccc(C#N)cc4)cc3)C2)c1-n1cccc1` [Example 210, Methyl 3-(3-(4-(4-cyanophenoxy)phenoxy)azetidin-1-yl)-2-(1H-pyrrol-1-yl)benzoate] stands 10 to 30%.
With `N#Cc1ccc(Oc2ccc(OC3CN(c4cccc(C(=O)O)c4-n4cccc4)C3)cc2)cc1` [Example 211, 3-(3-(4-(4-cyanophenoxy)phenoxy)azetidin-1-yl)-2-(1H-pyrrol-1-yl)benzoic acid], the inhibition at 50 µM was less than 10%.
With `COC(=O)c1cccc(N2CC(Oc3ccc(Oc4ccc(S(C)(=O)=O)cc4)cc3)C2)c1-n1cccc1` [Example 212, Methyl 3-(3-(4-(4-(methylsulfonyl)phenoxy)phenoxy)azetidin-1-yl)-2-(1H-pyrrol-1-yl)benzoate], the inhibition at 50 µM fell in the range of 10 to 30%.
Under `CS(=O)(=O)c1ccc(Oc2ccc(OC3CN(c4cccc(C(=O)O)c4-n4cccc4)C3)cc2)cc1` [Example 213, 3-(3-(4-(4-(methylsulfonyl)phenoxy)phenoxy)azetidin-1-yl)-2-(1H-pyrrol-1-yl)benzoic acid] stands less than 10%; under `CCC(=O)c1ccc(OC2CN(c3cccc(C(=O)OC)c3-n3cccc3)C2)cc1` [Example 214, Methyl 3-(3-(4-propionylphenoxy)azetidin-1-yl)-2-(1H-pyrrol-1-yl)benzoate], less than 10%.
On to `CCC(=O)c1ccc(OC2CN(c3cccc(C(=O)O)c3-n3cccc3)C2)cc1` [Example 215, 3-(3-(4-propionylphenoxy)azetidin-1-yl)-2-(1H-pyrrol-1-yl)benzoic acid], for which the inhibition at 50 µM is less than 10%.
Next, `COC(=O)c1cccc(N2CC(Oc3ccc(C(=O)C(C)C)cc3)C2)c1-n1cccc1` [Example 216, Methyl 3-(3-(4-isobutyrylphenoxy)azetidin-1-yl)-2-(1H-pyrrol-1-yl)benzoate]: less than 10%; `CC(C)C(=O)c1ccc(OC2CN(c3cccc(C(=O)O)c3-n3cccc3)C2)cc1` [Example 217, 3-(3-(4-isobutyrylphenoxy)azetidin-1-yl)-2-(1H-pyrrol-1-yl)benzoic acid]: less than 10%; `COCCOc1ccc(OC2CN(c3cccc(C(=O)OC)c3-n3cccc3)C2)cc1OC` [Example 218, Methyl 3-(3-(3-methoxy-4-(2-methoxyethoxy)phenoxy)azetidin-1-yl)-2-(1H-pyrrol-1-yl)benzoate]: 10 to 30%.
Under `COCCOc1ccc(OC2CN(c3cccc(C(=O)O)c3-n3cccc3)C2)cc1OC` [Example 219, 3-(3-(3-methoxy-4-(2-methoxyethoxy)phenoxy)azetidin-1-yl)-2-(1H-pyrrol-1-yl)benzoic acid] stands less than 10%.
Next, `COC(=O)c1cccc(N2CC(Oc3ccc(OCCNC(C)=O)c(OC)c3)C2)c1-n1cccc1` [Example 220, Methyl 3-(3-(4-(2-acetylaminoethoxy)-3-methoxyphenoxy)azetidin-1-yl)-2-(1H-pyrrol-1-yl)benzoate]: 10 to 30%.
For the molecule `COc1cc(OC2CN(c3cccc(C(=O)O)c3-n3cccc3)C2)ccc1OCCNC(C)=O` [Example 221, 3-(3-(4-(2-acetylaminoethoxy)-3-methoxyphenoxy)azetidin-1-yl)-2-(1H-pyrrol-1-yl)benzoic acid], the inhibition at 50 µM is less than 10%.
For the molecule `COC(=O)c1cccc(N2CC(Oc3cccc(Oc4ccccc4)c3)C2)c1-n1cccc1` [Example 222, Methyl 3-(3-(3-phenoxyphenoxy)azetidin-1-yl)-2-(1H-pyrrol-1-yl)benzoate], the inhibition at 50 µM is less than 10%.
Turning to `O=C(O)c1cccc(N2CC(Oc3cccc(Oc4ccccc4)c3)C2)c1-n1cccc1` [Example 223, 3-(3-(3-phenoxyphenoxy)azetidin-1-yl)-2-(1H-pyrrol-1-yl)benzoic acid], the inhibition at 50 µM was less than 10%.
Under `COCCOc1ccc(OC2CN(c3cccc(C(=O)OC)c3-n3cccc3)C2)cc1` [Example 224, Methyl 3-(3-(4-(2-methoxyethoxy)phenoxy)azetidin-1-yl)-2-(1H-pyrrol-1-yl)benzoate] stands less than 10%; under `COCCOc1ccc(OC2CN(c3cccc(C(=O)O)c3-n3cccc3)C2)cc1` [Example 225, 3-(3-(4-(2-methoxyethoxy)phenoxy)azetidin-1-yl)-2-(1H-pyrrol-1-yl)benzoic acid], 10 to 30%.
